Reference: US20210238173A1, “MITOGEN-ACTIVATED PROTEIN KINASE KINASE 7 INHIBITORS” (Yeda Research and Development Co. Ltd., priority 2018, published 2021)
Where “and” joins values, the source holds several entries; their conditions need not be identical. Equal values may be shown once.

How the values were obtained:
MKK7 = biological target: T1, MKK7 (Homo sapiens, UniProt O14733); experiment: In vitro kinase activity assay for MKK7 (Nanosyn); type: biochemical; settings: read-out: MKK7 IC50 in vitro
T1 construct: purchased Nanosyn (contract assay)
T1 sequence (O14733 1-419): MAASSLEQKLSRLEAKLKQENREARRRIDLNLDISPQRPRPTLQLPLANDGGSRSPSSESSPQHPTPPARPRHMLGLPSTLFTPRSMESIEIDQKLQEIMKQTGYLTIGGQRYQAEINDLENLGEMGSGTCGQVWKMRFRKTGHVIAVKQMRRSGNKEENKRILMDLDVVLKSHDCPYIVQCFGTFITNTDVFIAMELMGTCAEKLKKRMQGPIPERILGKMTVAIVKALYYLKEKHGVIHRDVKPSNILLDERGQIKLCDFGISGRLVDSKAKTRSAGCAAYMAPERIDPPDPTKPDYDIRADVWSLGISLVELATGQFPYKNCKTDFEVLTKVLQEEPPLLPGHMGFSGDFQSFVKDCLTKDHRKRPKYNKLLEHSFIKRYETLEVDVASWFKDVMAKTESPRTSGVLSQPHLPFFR
Protocol: Based on visual inspection of the top 500 predictions, 10 compounds were selected for synthesis and testing (see, Table 1). The “Docking rank” is given in its respective run, whereas four virtual libraries of acrylamides were docked separately, based on the amine precursor for the acrylamide (primary or secondary aliphatic amines, primary or secondary aromatic amines). In vitro kinase activity assay was carried out by Nanosyn, as described below.
In Vitro Activity Assays for MKK7 or MKK4 (Carried by Nanosyn):
Exemplary test compounds, according to some embodiments of the present invention, were diluted in DMSO to a final concentration that ranged from 10 μM to 0.0565 nM, while final concentration of DMSO in all assays was kept at 1%. Reference compound, Staurosporine, was tested in a similar manner. […] After incubation, activity of now activated JNK1 was tested in the presence of 30 μM ATP ATP for 17 h (MKK7) or 4 h (MKK4).

pJNK in HEK293 cells = experiment: In-cell western (ICW) pJNK inhibition in HEK293; type: cell-based; settings: Homo sapiens, HEK293, HEK293, ICW, 2 h pre-incubation, sorbitol stimulation
Protocol: (§1) HEK293, Beas2B and 3T3 cells were plated 24 hours before procedure on 384 well clear bottom black flat plates (Corning) pre-coated with Fibronectin (Sigma) diluted in PBS to a concentration of 5 μg/ml 45 minutes prior to cells introduction. Cells were plated using Multidrop™ Combi reagent dispenser (Thermo Fisher Scientific). Compound, reagents and antibody dispensing as well as washes were performed with a CyBio liquid handler (Analytik). Cells were pre-incubated with a small molecule or up to 1% DMSO for 2 h before fixation. HEK293, 3T3 or Beas2B cells were treated with 0.6M/0.2M/0.2M D-Sorbitol/PBS (Sigma) for 20/40/40 min. respectively, before fixation. Media was removed and wells were immediately fixed with 150 μl per well of 3.7% formaldehyde/PBS fixing solution for 20 min. Formaldehyde was then aspired and cells were permeabilized with 150 μl of 0.5% Triton x-100/PBS solution for 10 min. After aspiration cells were washed with ice-cold methanol and stored at −20° C., for 10 min. Methanol was aspired and cells were blocked with 150 μl blocking buffer (LICOR) for 90 min. Primary antibody Phospho-SAPK/JNK T183/Y185 (CST; 9251S) was diluted 1:1000 in blocking buffer and was applied 50 μl per well, except control wells to which only blocking buffer was applied, O.N. (16 h) at 4° C. with mild shaking. Primary antibody was aspired, wells were washed with 150 μl 0.1% Tween20/PBS (Sigma) washing solution three times for 7 min. IRDye® 800CW Goat anti-Rabbit IgG Secondary antibody (LICOR) was then diluted 1:1200 in blocking buffer with 50 μl applied per well on control wells only (no CellTag control), then CellTag700 (1:2000) was added to the solution and 50 μl were added to all experiment wells, for 1 h at room temperature. Wells were aspired and washed again with 150 μl 0.1% Tween20/PBS (Sigma) washing solution three times for 7 min. plate was dried and scanned with Odyssey CLx imaging system at 700 nm and 800 nm (Licor). Wells signals were analyzed with Odyssey software. The signal was normalized by the CellTag700 signal.
(§2) To rapidly assess the cellular activity (EC50) with full dose response curves of the MKK7 covalent inhibitors, according to some embodiments of the present invention, an in-cell western assay was adapted to a 384 well plate format over traditional western blot, and monitored phospho-JNK (pJNK) levels in response to osmotic shock. We first characterized the dynamics of pJNK in response to sorbitol. Sufficient dynamic range for pJNK is achieved at 20 minutes in HEK293 cells and at 40 minutes in 3T3 and Beas2B cells. The compound's activity was assessed by pre-treating cells with either compound or DMSO for 2 hours, followed by Sorbitol stimulation. The response of pJNK, and its substrates, pc-Jun and pATF2, was measured, as well as pP38, which is a substrate of MKK4 but not MKK7, and pERK in HEK293 cells, and the results are presented in Table 5 below.

[1] = Metabolic stability in mouse liver microsomes; type: in vitro ADME; settings: for half-life: mouse, liver microsomes
From the text: (§3) A reference compound, REF1250, was used in this study: […]

[2] = Metabolic stability in monkey liver microsomes; type: in vitro ADME
From the text: as §3

[3] = Metabolic stability in rat liver microsomes; type: in vitro ADME; settings: for half-life: rat, liver microsomes
From the text: as §3

[4] = Metabolic stability in human liver microsomes; type: in vitro ADME; settings: for half-life: human, liver microsomes
From the text: as §3

[5] = Metabolic stability in dog liver microsomes; type: in vitro ADME; settings: for half-life: dog, liver microsomes
From the text: as §3

pJNK in 3T3 WT cells = experiment: In-cell western (ICW) pJNK inhibition in 3T3 WT; type: cell-based; settings: for EC50: 3T3 WT, ICW, 2 h pre-incubation, sorbitol stimulation
Protocol: as §1, §2
Wildtype 3T3 cells, 3T3 MKK7 double knock-out (MKK7^−/−) cells and MKK4/7 double knockouts (MKK4/7^−/−) were used to validate on target activity of the MKK7 covalent inhibitors presented herein.

SMILES	IC50 (MKK7) [µM]	EC50 (pJNK in HEK293 cells) [µM]	% remaining @ 40 min [1]	half-life [1] [min]	% remaining @ 40 min [2] [%]	% remaining @ 40 min [3]	half-life [3] [min]	% remaining @ 40 min [4]	half-life [4] [min]	% remaining @ 40 min [5]	also measured
C=CC(=O)Nc1cccc2[nH]ncc12 [GO1]	> 10	–	–	–	–	–	–	–	–	–	–
C=CC(=O)NC1CCC(c2nc(-c3ccccc3)n[nH]2)CC1 (centres unmarked) [GO2]	> 10	–	–	–	–	–	–	–	–	–	–
C=CC(=O)Nc1ccc(N2CCNC2=O)cc1 [GO5]	0.502	–	–	–	–	–	–	–	–	–	–
C=CC(=O)N1CCC(c2c[nH]c3ncccc23)CC1 [GO6]	> 10	–	–	–	–	–	–	–	–	–	–
C=CC(=O)Nc1ccc2c(c1)C(=O)NC2 [GO7]	0.873	–	–	–	–	–	–	–	–	–	–
C=CC(=O)NCC1CCCN(c2cc(NC)ncn2)C1 (centres unmarked) [GO8]	> 10	–	–	–	–	–	–	–	–	–	–
C=CC(=O)NCC1CCCN1c1cc(NC)ncn1 (centres unmarked) [GO9]	> 10	–	–	–	–	–	–	–	–	–	–
C=CC(=O)N1CCN(CC2=NC(C)N=N2)CC1 (centres unmarked) [GO10]	> 10	–	–	–	–	–	–	–	–	–	–
C=CC(=O)N1CCOC(c2nc(CCC)n[nH]2)C1 (centres unmarked) [GO14]	> 10	–	–	–	–	–	–	–	–	–	–
C=CC(=O)Nc1cccc(-c2n[nH]c3c([N+](=O)[O-])cccc23)c1 [GO29]	0.027	> 10	–	–	–	–	–	–	–	–	–
C=CC(=O)Nc1cccc(-c2n[nH]c3c2CCC3)c1 [GO49]	0.073	–	–	–	–	–	–	–	–	–	–
C=CC(=O)Nc1cccc(-c2n[nH]c3c2CC(C)(C)CC3)c1 [GO54]	0.01	3.3	18%	11	1	4%	8	20%	16	1%	half-life [2]: 5 min; half-life [5]: 6 min
C=CC(=O)Nc1cccc(-c2n[nH]c3c2COCC3)c1 [GO55]	0.064	> 10	4%	8	0	40%	29	13%	13	6%	half-life [2]: < 5 min; half-life [5]: 9 min
C=CC(=O)Nc1cccc(-c2n[nH]c3c2CN(C(=O)OC(C)(C)C)CC3)c1 [GO61]	0.193	> 10	–	–	–	–	–	–	–	–	–
C=CC(=O)Nc1cccc(-c2n[nH]c3c2CNCC3)c1 [GO64]	2.46	> 10	–	–	–	–	–	–	–	–	–
C#CCCCC(=O)N1CCc2[nH]nc(-c3cccc(NC(=O)C=C)c3)c2C1 [GO65]	0.03	–	–	–	–	–	–	–	–	–	–
C=CC(=O)Nc1cc(-c2n[nH]c3ccccc23)ccc1C [GO72]	0.026	4.2	0%	< 5	0	0%	< 5	11%	12	0%	half-life [2]: < 5 min; half-life [5]: < 5 min
C=CC(=O)Nc1cc(C#N)cc(-c2n[nH]c3ccccc23)c1 [GO73]	0.004	–	0%	< 5	0	0%	< 5	0%	< 5	0%	half-life [2]: < 5 min; half-life [5]: < 5 min
CN(C)C/C=C/C(=O)Nc1cccc(-c2n[nH]c3ccccc23)c1 [GO74]	0.267	–	–	–	–	–	–	–	–	–	–
C=CC(=O)Nc1cccc(-c2n[nH]c3c(C)cccc23)c1 [GO81]	0.812	–	–	–	–	–	–	–	–	–	–
C=CC(=O)Nc1cccc(-c2n[nH]c3cc(OC)ccc23)c1 [GO83]	0.011	–	0%	5	0	48%	35	1%	< 5	0%	half-life [5]: < 5 min
C=CC(=O)Nc1cccc(-c2n[nH]c3c(F)cccc23)c1 [GO88]	0.004	1.8	0%	< 5	0	2%	7	0%	< 5	0%	half-life [2]: < 5 min; half-life [5]: < 5 min
C=CC(=O)Nc1cccc(-c2n[nH]c3c(Cl)cccc23)c1 [GO89]	0.047	–	0%	< 5	0	1%	6	3%	8	0%	half-life [2]: < 5 min
C=CC(=O)Nc1cccc(-c2n[nH]c3cc(-c4ccccc4)ccc23)c1 [GO101]	0.011	1	–	–	–	–	–	–	–	–	–
C=CC(=O)Nc1cccc(-c2n[nH]c3cc(Cl)ccc23)c1 [GO106]	0.005	3	0%	< 5	0	17%	16	0%	< 5	0%	half-life [2]: < 5 min; half-life [5]: < 5 min
C=CC(=O)Nc1cc(C(=O)O)cc(-c2n[nH]c3ccccc23)c1 [PCM476]	–	–	100%	–	100	61%	–	100%	–	100%	Halflife [1]: >40 min; EC50 (pJNK in 3T3 WT cells): > 10 µM; activity in ICW in 3T3 cells (pJNK in 3T3 WT cells): inactive; Halflife [2]: >40 min; Halflife [3]: >40 min; Halflife [4]: >40 min; Halflife ([4]; listed as PCM76): more than 40 min; Halflife [5]: >40 min
C=CC(=O)N[C@H]1CCCN(c2[nH]nc3ccccc23)C1 [PCM531]	–	> 10	–	–	–	–	–	–	–	–	activity in ICW in 3T3 cells (pJNK in 3T3 WT cells): inactive
C=CC(=O)Nc1cc(C(=O)N(C)C)cc(-c2n[nH]c3ccccc23)c1 [PCM549]	–	–	–	–	–	–	–	–	–	–	EC50 (pJNK in 3T3 WT cells): > 10 µM
COc1cc(OC)cc(C(C#N)(CCCN(C)CCc2ccc(OC)c(OC)c2)C(C)C)c1 (centres unmarked) [REF1250, reference compound]	–	–	2% and 1%	7	0	3% and 1%	8	5% and 3%	9	12% and 5%	Halflife [1]: 6 min; half-life [2]: < 5 min; Halflife [3]: 6 min; half-life [5]: 12 min
